One compound from ChEMBL document CHEMBL5154690, “Discovery of a tricyclic farnesoid X receptor agonist HEC96719, a clinical candidate for treatment of non-alcoholic steatohepatitis” (Eur J Med Chem, 2022) can be followed below.

Broadly, the EC50 is the concentration at which the effect is half-maximal. As a reminder, the bioavailability is dose-corrected exposure relative to a reference, in per cent. A lower bioavailability goes with poor availability. One may read the IC50 as the concentration needed to halve the response being measured. A low value points to greater potency.

Series [1] is described as follows: Drug recovery in lung of male Sprague-Dawley rat at 4.5 mg/kg, po administered as C14-lableled compound and assessed as radioactivity and measured at 1 hr. The series is classed as ADME, organism-based. The note with it: in vivo.
The nature of series [2]: Drug recovery in pancreas of male Sprague-Dawley rat at 4.5 mg/kg, po administered as C14-lableled compound and assessed as radioactivity and measured at 24 hrs. The series is classed as ADME, organism-based. The note with it: in vivo.
The nature of series [3]: Drug recovery in plasma of male Sprague-Dawley rat at 4.5 mg/kg, po administered as C14-lableled compound and assessed as radioactivity and measured at 0.25 hrs. The series is classed as ADME, organism-based. The note with it: in vivo.
Series [4] can be described thus: Drug metabolism in feces of Sprague-Dawley rat assessed as production of toxic metabolites at 4.5 mg/kg, po administered as C14-lableled compound with single dose. The series is classed as ADME, organism-based. The note with it: in vivo.
Series [5] can be described thus: Drug recovery in liver of male Sprague-Dawley rat at 4.5 mg/kg, po administered as C14-lableled compound and assessed as radioactivity and measured at 6 hrs. The class given is ADME, organism-based. The note with it: in vivo.
Series [6] relates to Mus musculus. Briefly: Antifibrotic activity in C57BL/6 mouse model of CCI4-induced liver fibrosis assessed as decrease in serum ALT level at 0.1 to 1 mg/kg, po administered once daily for 4 weeks. The series is classed as functional, organism-based. The note with it: dose 0.1-1 mg/kg.
The target in series [7] is T1, Peroxisome proliferator-activated receptor gamma (Homo sapiens, UniProt P37231).
T1 sequence (P37231 whole entry): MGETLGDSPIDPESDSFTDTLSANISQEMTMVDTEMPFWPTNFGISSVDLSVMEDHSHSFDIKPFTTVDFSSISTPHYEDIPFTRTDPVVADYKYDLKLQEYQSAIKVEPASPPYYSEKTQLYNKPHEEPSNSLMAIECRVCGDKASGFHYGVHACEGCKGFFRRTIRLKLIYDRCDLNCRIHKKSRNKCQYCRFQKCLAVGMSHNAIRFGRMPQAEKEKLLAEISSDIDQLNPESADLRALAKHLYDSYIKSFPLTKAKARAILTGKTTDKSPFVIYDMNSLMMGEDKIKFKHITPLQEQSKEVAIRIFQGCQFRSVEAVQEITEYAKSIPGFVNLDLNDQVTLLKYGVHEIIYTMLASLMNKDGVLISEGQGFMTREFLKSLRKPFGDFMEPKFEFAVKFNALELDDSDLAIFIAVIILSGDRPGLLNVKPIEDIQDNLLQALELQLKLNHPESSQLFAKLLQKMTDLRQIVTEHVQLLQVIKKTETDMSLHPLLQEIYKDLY
Briefly: Agonist activity at PPARgamma (unknown origin).

Series [8] deals with Mus musculus. Briefly: Anti-NASH activity against high fat (HF) diet-induced nonalcoholic steatohepatitis in leptin-deficient ob/ob mouse model assessed as reduction in serum ALT level at 3 mg/kg, po administered once daily from week 5 to 10. The class given is functional, organism-based.
Series [9] deals with Mus musculus. Nature of the series: Antifibrotic activity in C57BL/6 mouse model of CCI4-induced liver fibrosis assessed as decrease in serum TBIL level at 0.1 to 1 mg/kg, po administered once daily for 4 weeks. The class given is functional, organism-based. The note with it: dose 0.1-1 mg/kg.
Series [10] can be described thus: Drug recovery in heart of male Sprague-Dawley rat at 4.5 mg/kg, po administered as C14-lableled compound and assessed as radioactivity and measured at 1 hr. The series is classed as ADME, organism-based. The note with it: in vivo.
The nature of series [11]: Oral bioavailability in male Sprague-Dawley rat at 5 mg/kg measured by LC-MS/MS analysis. The class given is ADME, organism-based. The note with it: in vivo.
Series [12] in a line: Drug recovery in skin of male Sprague-Dawley rat at 4.5 mg/kg, po administered as C14-lableled compound and assessed as radioactivity and measured at 0.25 hrs. The class given is ADME, organism-based, Skin of body. The note with it: in vivo.
Series [13] can be described thus: Drug recovery in kidney of male Sprague-Dawley rat at 4.5 mg/kg, po administered as C14-lableled compound and assessed as radioactivity and measured at 6 hrs. The class given is ADME, organism-based. The note with it: in vivo.
The next series addresses Estrogen receptor beta (Homo sapiens, UniProt Q92731). Briefly: Agonist activity at estrogen receptor beta (unknown origin).
Series [14] deals with T2, Bile acid receptor (Rattus norvegicus) (UniProt Q62735).
T2 sequence (whole entry): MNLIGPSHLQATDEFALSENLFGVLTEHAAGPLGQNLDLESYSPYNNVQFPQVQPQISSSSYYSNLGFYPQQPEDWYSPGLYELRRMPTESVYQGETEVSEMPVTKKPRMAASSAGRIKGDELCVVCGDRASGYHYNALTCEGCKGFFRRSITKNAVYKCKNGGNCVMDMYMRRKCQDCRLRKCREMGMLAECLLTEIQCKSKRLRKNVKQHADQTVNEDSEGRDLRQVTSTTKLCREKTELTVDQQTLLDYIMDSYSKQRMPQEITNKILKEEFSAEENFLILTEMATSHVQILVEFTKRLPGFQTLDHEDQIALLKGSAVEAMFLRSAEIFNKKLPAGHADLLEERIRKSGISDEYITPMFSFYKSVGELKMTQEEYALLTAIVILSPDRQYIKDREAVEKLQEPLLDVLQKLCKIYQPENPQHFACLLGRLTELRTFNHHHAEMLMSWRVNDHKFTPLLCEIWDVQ
Nature of the series: In vivo activation of FXR in male Sprague-Dawley rat assessed as fold increase in liver BSEP level at 5 mg/kg, po administered as single dose measured at 1 hr by RT-qPCR assay. The class given is functional, organism-based. In general terms: In qPCR the cycle at which signal appears reflects the starting amount.

In series [15] the target is Voltage-gated inwardly rectifying potassium channel KCNH2 (Homo sapiens, UniProt Q12809). Nature of the series: Inhibition of hERG. The class given is toxicity.
In series [16] the test system is Mus musculus. Briefly: Anti-NASH activity in western style diet-induced nonalcoholic steatohepatitis model of male C57BL/6 mouse assessed as reduction in NASH activity score (NAS) at 1 mg/kg, po administered once daily from week 32 to 44. The series is classed as functional, organism-based.
Series [17] can be described thus: Ratio of drug level in kidney to plasma in male Sprague-Dawley rat at 4.5 mg/kg, po administered as C14-lableled compound and measured at 0.25 to 6 hrs. The series is classed as ADME, organism-based. The note with it: other tissue, time 0.25-6 hrs.
The nature of series [18]: Drug recovery in heart of male Sprague-Dawley rat at 4.5 mg/kg, po administered as C14-lableled compound and assessed as radioactivity and measured at 0.25 hrs. The class given is ADME, organism-based. The note with it: in vivo.
A short description of series [19]: Drug recovery in ileum of male Sprague-Dawley rat at 4.5 mg/kg, po administered as C14-lableled compound and assessed as radioactivity and measured at 0.25 hrs. The class given is ADME, organism-based. The note with it: in vivo.
Series [20] in a line: Mutagenecity in Salmonella typhimurium TA100 measured by Ames test. The class given is toxicity. The note with it: salmonella enterica subsp. enterica serovar typhimurium. For orientation: The Ames test detects mutagens through reverse mutation in bacteria.
Series [21] addresses T3, G-protein coupled bile acid receptor 1 (Homo sapiens, UniProt Q8TDU6).
T3 sequence (Q8TDU6 whole entry): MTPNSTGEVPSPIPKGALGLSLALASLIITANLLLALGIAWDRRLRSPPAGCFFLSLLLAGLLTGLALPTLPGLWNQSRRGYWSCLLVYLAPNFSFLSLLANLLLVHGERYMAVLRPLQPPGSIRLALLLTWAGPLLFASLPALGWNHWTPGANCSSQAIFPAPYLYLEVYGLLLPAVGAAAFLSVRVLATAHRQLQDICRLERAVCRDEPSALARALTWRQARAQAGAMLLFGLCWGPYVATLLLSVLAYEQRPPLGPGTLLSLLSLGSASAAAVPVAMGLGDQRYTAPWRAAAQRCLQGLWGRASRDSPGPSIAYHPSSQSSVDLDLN
Briefly: Agonist activity in human GPBAR1 assessed as increase in intracellular cAMP level. The series is classed as functional, cell-based. On the technique in general: Cyclic AMP is a second messenger, typically raised through Gs and lowered through Gi signalling.

A short description of series [22]: Drug recovery in stomach of male Sprague-Dawley rat at 4.5 mg/kg, po administered as C14-lableled compound and assessed as radioactivity and measured at 24 hrs. The series is classed as ADME, organism-based. The note with it: in vivo.

Activity calls are given as the source filed them. The rule behind the calls is not given here.

Voltage-gated inwardly rectifying potassium channel KCNH2, sequence (Q12809 whole entry): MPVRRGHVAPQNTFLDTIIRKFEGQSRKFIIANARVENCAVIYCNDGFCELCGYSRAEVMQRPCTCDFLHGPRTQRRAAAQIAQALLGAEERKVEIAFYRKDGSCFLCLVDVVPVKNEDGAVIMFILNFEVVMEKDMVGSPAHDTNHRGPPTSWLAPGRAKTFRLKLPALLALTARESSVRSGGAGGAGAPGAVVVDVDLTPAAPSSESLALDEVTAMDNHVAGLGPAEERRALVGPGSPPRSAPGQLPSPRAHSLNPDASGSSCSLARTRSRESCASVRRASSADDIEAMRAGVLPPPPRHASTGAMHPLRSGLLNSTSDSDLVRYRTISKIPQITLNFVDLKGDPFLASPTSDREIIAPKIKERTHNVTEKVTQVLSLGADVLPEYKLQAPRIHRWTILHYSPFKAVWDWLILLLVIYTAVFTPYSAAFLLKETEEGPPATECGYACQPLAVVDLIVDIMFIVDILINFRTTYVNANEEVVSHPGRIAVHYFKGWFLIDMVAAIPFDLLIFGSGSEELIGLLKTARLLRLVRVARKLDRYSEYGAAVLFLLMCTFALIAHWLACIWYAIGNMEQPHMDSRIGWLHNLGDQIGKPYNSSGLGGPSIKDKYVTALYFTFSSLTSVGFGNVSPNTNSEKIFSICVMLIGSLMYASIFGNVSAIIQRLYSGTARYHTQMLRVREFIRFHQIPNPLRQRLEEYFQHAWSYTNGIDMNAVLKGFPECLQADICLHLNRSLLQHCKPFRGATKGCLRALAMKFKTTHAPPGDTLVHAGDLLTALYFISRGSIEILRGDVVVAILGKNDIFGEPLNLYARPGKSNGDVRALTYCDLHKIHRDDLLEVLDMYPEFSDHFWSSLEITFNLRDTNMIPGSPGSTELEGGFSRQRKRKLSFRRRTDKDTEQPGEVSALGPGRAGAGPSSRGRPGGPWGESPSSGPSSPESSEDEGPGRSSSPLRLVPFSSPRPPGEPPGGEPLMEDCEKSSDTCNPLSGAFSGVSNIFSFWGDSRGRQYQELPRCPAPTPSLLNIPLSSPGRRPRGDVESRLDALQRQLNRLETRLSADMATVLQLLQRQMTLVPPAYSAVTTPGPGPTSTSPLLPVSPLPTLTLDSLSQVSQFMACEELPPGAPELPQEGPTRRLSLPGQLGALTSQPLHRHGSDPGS
Estrogen receptor beta, sequence (Q92731 whole entry): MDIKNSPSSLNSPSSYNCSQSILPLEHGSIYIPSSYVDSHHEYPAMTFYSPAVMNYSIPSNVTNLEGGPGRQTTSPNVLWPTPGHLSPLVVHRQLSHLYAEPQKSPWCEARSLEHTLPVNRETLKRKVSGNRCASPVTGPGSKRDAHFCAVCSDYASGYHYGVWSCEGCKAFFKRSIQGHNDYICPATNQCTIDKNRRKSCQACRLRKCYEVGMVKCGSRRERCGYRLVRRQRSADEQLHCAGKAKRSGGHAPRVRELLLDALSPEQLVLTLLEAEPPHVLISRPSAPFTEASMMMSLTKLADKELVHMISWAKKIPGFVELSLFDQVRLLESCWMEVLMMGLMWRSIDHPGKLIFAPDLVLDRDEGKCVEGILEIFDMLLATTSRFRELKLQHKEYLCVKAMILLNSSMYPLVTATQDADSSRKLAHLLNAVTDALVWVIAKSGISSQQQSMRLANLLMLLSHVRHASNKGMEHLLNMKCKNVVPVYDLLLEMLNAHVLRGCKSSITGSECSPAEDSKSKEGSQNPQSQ

As for `O=C(O)c1ccc2c(c1)Oc1ccc(OCc3c(-c4c(Cl)cccc4Cl)noc3C3CC3)nc1C1(CC1)C2`, the Drug recovery was determined as 814 ngequiv/g in [1]; 206 ngequiv/g in series [2]; 229 ngequiv/g in series [3]; 521 ngequiv/g in series [5]; 341 ngequiv/g in series [10]; 33.3 ngequiv/g in [12]. For the same compound, the Drug recovery in [13] is reported as 67.8 ngequiv/g; in [18] it was 208 ngequiv/g; in series [19] it was 606 ngequiv/g; in series [22] it was 108 ngequiv/g. The Drug metabolism entry in series [4] is “Metabolite_Notdetected”. For the same compound, the result with Mus musculus [6], with Mus musculus [8], with Mus musculus [9] and with Mus musculus [16] was Active. Moreover, the EC50 (in [7]; at Estrogen receptor beta; in series [21]) was above 10 µM in each case. Further, the bioavailability in series [11] turned out to be 50.8%. Also, the fold change (FC) in series [14] stood at 2. In [15], the IC50 is above 5.24 µM. In series [17], the Ratio was 1.8. Moreover, the Activity result in [20] is given as “Non-Toxic”.
